Where two headings read alike, the source gives them in different places. Marks after values point to notes of the source that are not given here.
What was measured:
[1] = tested on: patients with advanced solid tumours; test: Phase I trial: treatment emergent grade 3 or 4 haematological and nonhaematological toxicities (NCI-CTC v2.0), all cycles; conditions: human, in vivo
Procedure: Tipifarnib was supplied by Johnson & Johnson Pharmaceutical Research and Development as 100 mg tablets. […] Tipifarnib was administered orally twice daily, with intervals of 12 h. Tipifarnib was given on days 1–7 of each 21-day cycle. […] To minimise nephrotoxicity, a pre-and posthydration schedule was implemented on day 1. […] At least three patients were treated at each dose level. If DLT occurred in a patient during cycle 1, three additional patients were enrolled in that cohort. MTD was defined at which 2 or more out of 6 patients (2⩾6) experienced DLT. […] These toxicities were only considered DLT if they occurred during the first cycle of treatment. In the case of grade 3–4 haematological toxicities, the dose of gemcitabine was adjusted in the next cycle based on nadir blood cell counts. Dose adjustments were relative to the starting dose of gemcitabine received in the previous cycle of therapy. If the nadir granulocyte count was >500 μl^−1 and the nadir platelet count >50 000 μl^−1, 100% of the planned gemcitabine dose was administered. […] The administration of tipifarnib was discontinued when haematological DLT occurred. After recovery to at least grade 1, tipifarnib was reinstituted at the same dose level in conjunction with a dose modification of gemcitabine. If a patient continued to experience haematological DLT after one dose modification of gemcitabine, the dose of tipifarnib was decreased with 100 mg b.i.d. If at any time the dose of tipifarnib was to be reduced to <100 mg b.i.d. or if retreatment needed to be delayed >2 weeks after the scheduled restarting of a cycle, the patient went off-study. […] If grade 4 nonhaematological toxicities occurred, patients went off-study. No dose adjustments were made for transaminase elevation unless associated with clinical signs or symptoms. […] If at any time the dose of tipifarnib was to be reduced to <100 mg b.i.d. or if retreatment needed to be delayed >2 weeks after the scheduled restarting of a cycle, the patient went off-study.
Complete patient history, physical examination, haematology, chemistry, urinalysis and electrocardiogram were performed at baseline and before each cycle of treatment. Physical examination, haematology and chemistry were also evaluated on days 8 and 15 of each cycle. Audiometry was performed at baseline and was repeated if clinically indicated. Indicator lesions were measured before start of treatment and every two cycles, as a basis for the assessment of activity of the treatment. All toxicities observed were graded according to the Common Toxicity Criteria ([NCI-CTC, Version 2.0, 1998]).

[2] = tested on: patients with advanced solid tumours; test: Phase I trial: dose-limiting toxicities in cycle 1 and maximum tolerated dose; assay type: in vivo, human
Procedure: Tipifarnib was supplied by Johnson & Johnson Pharmaceutical Research and Development as 100 mg tablets. […] Tipifarnib was administered orally twice daily, with intervals of 12 h. Tipifarnib was given on days 1–7 of each 21-day cycle. […] To minimise nephrotoxicity, a pre-and posthydration schedule was implemented on day 1. […] At least three patients were treated at each dose level. If DLT occurred in a patient during cycle 1, three additional patients were enrolled in that cohort. MTD was defined at which 2 or more out of 6 patients (2⩾6) experienced DLT. […] These toxicities were only considered DLT if they occurred during the first cycle of treatment. In the case of grade 3–4 haematological toxicities, the dose of gemcitabine was adjusted in the next cycle based on nadir blood cell counts. Dose adjustments were relative to the starting dose of gemcitabine received in the previous cycle of therapy. If the nadir granulocyte count was >500 μl^−1 and the nadir platelet count >50 000 μl^−1, 100% of the planned gemcitabine dose was administered. […] The administration of tipifarnib was discontinued when haematological DLT occurred. After recovery to at least grade 1, tipifarnib was reinstituted at the same dose level in conjunction with a dose modification of gemcitabine. […]

clinical = conditions: for AUC(0-t) / Cmax: 750 mg
Procedure: (§1) In cycle 2, tipifarnib pharmacokinetics was then determined on day 2. For gemcitabine, 2 ml blood samples were taken at 0, 15, 30, 35, 45, 60, 90 min and at 2, 2.5, 24, 32 and 48 h after the start of the 30 min infusion during cycle 1 and at 0, 15, 30, 35, 45, 60, 90 min during cycle 2. Both gemcitabine and its metabolite 2′, 2′ -difluoro-2′-deoxy-uridine (dFdU) were measured in plasma. Of each blood sample, 1 ml was added to 10 μl of tetrahydrouridine (10 mg ml^−1), after which it was centrifuged for 5 min at 4°C and 1500 g. Subsequently, the plasma layer was stored at −20°C until analysis. Additionally, 15 ml blood samples were taken at 0, 1.5, 4 and 24 h after the start of the gemcitabine infusion for the determination of the triphosphate metabolite of gemcitabine (dFdCTP) in WBC ([Sparidans et al, 2002]). Isolation of WBC was performed using a Ficoll density gradient (Pharmacia, Sweden) as described previously ([Heinemann et al, 1998]). All gemcitabine levels were measured using a validated high-performance liquid chromatography (HPLC) method, analogous to the method of [Freeman et al (1995)]. […] Blood samples were immediately centrifuged for 5 min at 4°C and 1500 g. Unbound platinum was obtained by ultrafiltration using the MPS-1 system equipped with 3 kDa YMT membranes (Amicon Division, Danvers, MA, USA). The resulting plasma ultrafiltrate and total plasma were immediately stored at −20°C until analysis by atomic absorption spectrometry (AAS) ([Van Warmerdam et al, 1995]). […] For tipifarnib, 5 ml blood samples were drawn at 0, 1, 2, 3, 5, 8 and 12 h after the morning dose. Immediately after collection, the blood samples were centrifuged for 5 min at 4°C at 1500 g. Separated plasma was stored at −20°C for subsequent drug analysis by a validated HPLC method with UV detection ([Zujewski et al, 2000]).
(§2) The following pharmacokinetic parameters were determined using noncompartmental analysis with WinNonLin software (version 4.1, Pharsight Corporation, Mountain View, CA, USA): the maximum plasma concentration (Cmax), time to maximum plasma concentration (tmax), the elimination half-life (t1/2), the area under the plasma concentration–time curve from 0 to 48 h (AUC0–48) of gemcitabine and dFdU and the AUC0–23 for total and unbound (free) platinum. […] In addition, the AUC0–24 of dFdCTP and the AUA0–23 (area under the adduct curve) ([Schellens et al, 1996]) of Pt-DNA adducts were calculated in WBC. For tipifarnib, Cmax, tmax and AUC0-12 were determined.
(§3) The primary pharmacokinetic parameters of interest for the statistical analyses were Cmax and AUC. Only data from patients who completed the pharmacokinetic blood sampling during the first and second cycles and had no dose reduction were included in the analyses. […] A significance level of 0.05 was used for all analyses. The statistical analyses were performed using the SAS statistical software program (version 6.12; SAS Institute, Inc., Cary, NC, USA).

plasma proteins = conditions: cited from earlier work
cancer patients = conditions: cited from earlier work; for MTD: ref Adjei et al, 2003b
[3] = dFdCTP in white blood cells with or without tipifarnib; assay type: in vivo, human; conditions: mononuclear blood cell, adjusted to 750 mg m^−2 gemcitabine
[4] = Plasma pharmacokinetics of tipifarnib (HPLC-UV) as monotherapy or with gemcitabine/cisplatin; assay type: in vivo, human; conditions: single 200 mg oral dose
Procedure: as §1, §2, §3

[5] = cited from earlier work
[6] = combination with tipifarnib given for 14 days

## Nc1ccn([C@@H]2O[C@H](CO)[C@@H](O)C2(F)F)c(=O)n1 [gemcitabine]
[1]
  Patients with a dose reduction owing to haematological toxicities: 16%
  Patients with a dose reduction owing to nonhaematological toxicities: 13%
[2]; i.v., in the combination of tipifarnib, gemcitabine (days 1 and 8) and cisplatin (day 1), 21-day cycle (dose level 3)
  Maximum tolerated dose (MTD): 1000 mg m^−2
clinical; human, in vivo
  AUC(0-t): 6710 ng·h/mL
  Cmax: 12500 ng/mL
clinical; human, in vivo, iv
  Median tmax: 0.50 h
clinical; in vivo
  Pharmacokinetic (drug–drug) interaction: no drug–drug interaction
Plasma proteins; ref Shipley et al, 1992
  Binding to plasma proteins: negligible
Cancer patients; [6]
  MTD: 1000 mg m^−2

## Nc1ccn([C@@H]2O[C@H](COP(=O)(O)OP(=O)(O)OP(=O)(O)O)[C@@H](O)C2(F)F)c(=O)n1 [dFdCTP]
clinical; cycle 1 (with tipifarnib) vs cycle 2 (without tipifarnib), Cmax and AUC, ANOVA
  Pharmacokinetic (drug–drug) interaction: no drug–drug interaction
[3]; Gem/cis without tipifarnib
  AUC0–24, mean (s.d.): 18.3 (40.9) ^i h nanomol mg protein^−1
[3]; Gem/cis+tipifarnib 100–300 mg
  AUC0–24, mean (s.d.): 14.7 (22.9) ^j h nanomol mg protein^−1

## N.N.[Cl][Pt][Cl] [cisplatin]
Cancer patients; [6]
  MTD: 75 mg m^−2

## Cn1cncc1[C@@](N)(c1ccc(Cl)cc1)c1ccc2c(c1)c(-c1cccc(Cl)c1)cc(=O)n2C [tipifarnib]
[1]
  Patients with a dose reduction owing to haematological toxicities: 10%
  Patients with a dose reduction owing to nonhaematological toxicities: 3%
[2]; oral, days 1–7 of each 21-day cycle, in combination with gemcitabine and cisplatin (dose level 3)
  Maximum tolerated dose (MTD): 200 mg b.i.d.
[4]; human, tipifarnib as monotherapy (cycle 2 day 2), n=20, read-out: AUC0-12, mean (s.d.)
  AUC(0-t): 2630 ng·h/mL
[4]; human, tipifarnib as monotherapy (cycle 2 day 2), n=20, read-out: Cmax, mean (s.d.)
  Cmax: 499 ng/mL
[4]; tipifarnib as monotherapy (cycle 2 day 2), n=20
  Median tmax: 3.0 h
[4]; with gemcitabine 750–1000 mg m^−2 and cisplatin 75–100 mg m^−2 (cycle 1 day 1), n=22
  AUC0-12, mean (s.d.): 2971 (2089) ^c h ng ml^−1
[4]; with gemcitabine 750–1000 mg m^−2 and cisplatin 75–100 mg m^−2 (cycle 1 day 1), n=23
  Median tmax: 2.1 h
Plasma proteins; ref Janssen Research Foundation, 2003
  Bound to plasma proteins: 99%
[5]; tipifarnib combined with cisplatin, ref Skrzat et al, 1999
  Preclinical interaction of the combination: additive
[5]; tipifarnib combined with gemcitabine, ref Janssen Research Foundation, 2003
  Preclinical interaction of the combination: synergy
Cancer patients; continuous tipifarnib with gemcitabine 1000 mg m^−2 on days 1, 8 and 15 every 4 weeks, ref Patnaik et al, 2003
  Recommended dose: 200 mg b.i.d.
Cancer patients; monotherapy, 7 consecutive days, cancer patients, ref Zujewski et al, 2000
  Dose up to which the regimen was safe: at least 300 mg b.i.d.
Cancer patients; tipifarnib for 14 days with gemcitabine days 1 and 8 and cisplatin day 1
  MTD: 300 mg b.i.d.

## O=c1ccn([C@@H]2O[C@H](CO)[C@@H](O)C2(F)F)c(=O)[nH]1 [dFdU, 2′, 2′ -difluoro-2′-deoxy-uridine]
clinical; human, in vivo
  AUC(0-t): 237000 ng·h/mL
  Cmax: 25600 ng/mL
clinical; in vivo
  Pharmacokinetic (drug–drug) interaction: significant difference
